Measured values published in paper PMC4448986 (Pharmacology Research & Perspectives, 2015).
Converted amounts (≈) assume the structure as drawn.

Tests used:
[1] = PK analysis in rats; type: in vivo; details: male, Sprague-Dawley, rat, plasma, po, 100 mg/kg
[2] = Water solubility by UV-vis; details: deionized water, 20 °C, thermodynamic from solid

AUC [1]: 51.5 µg·h/mL | AUC(0-inf) [1]: 54.3 µg·h/mL | AUC(0-t) [1]: 51.5 µg·h/mL | Tmax [1]: 2 h | solubility at 24 h [2]: 0.28 ± 0.02 µM (≈ 0.0976 µg/mL)
SMILES: C=C(c1ccc(C(=O)O)cc1)c1cc2c(cc1C)C(C)(C)CCC2(C)C [Compound 1, bexarotene]
